From patent US7303739B2, “Prodrugs for liver specific drug delivery” (Metabasis Therapeutics, Inc., priority 1999, dated 2007)

Tests used:
[1] = test system: human liver microsomes (CYP3A4, CYP1A2, CYP2C9); test: Identification of the P450 isozyme involved in the activation (human microsomes with isozyme inhibitors); assay type: in vitro ADME; conditions: 0-100 μM inhibitor, 250 μM prodrug
Description: Prodrugs are evaluated for human microsome-catalyzed conversion to parent compound in the absence and presence of specific inhibitors of three major P450 isozymes: ketoconazole (CYP3A4), furafylline (CYP1A2), and sulfaphenazole (CYP2C9).
Methods: Reactions (0.5 ml @ 37° C.) consist of 0.2 M KH2PO4, 13 mM glucose-6-phosphate, 2.2 mM NADP^+, 1 unit of glucose-6-phosphate dehydrogenase, 0-2.5 mg/ml human microsomal protein (In Vitro Technologies, Inc.), 250 μM prodrug, and 0-100 μM P450 isozyme inhibitor. Reactions are stopped by addition of methanol to a concentration of 60%, filtered ([…]), and lyophilized. Samples are resuspended in HPLC buffer (10 mM phosphate pH 5.5, 2.5 mM octyl-triethyl-ammonium), loaded onto a YMC C8 HPLC column (250×4.6 mm), and eluted with a methanol gradient to 80%. Formation of parent drug is confirmed by co-elution with an authentic parent drug standard.

rat embryos in culture = rat embryos in culture (Teratology 39, 31-37 (1989)); cited from earlier work
rat hepatocytes = test: Activation of Compound 1.1 to Etoposide in rat hepatocytes; assay type: in vitro ADME
Description: Methods: Hepatocytes were prepared from fed Sprague-Dawley rats (250-300 g) according to the procedure of Berry and Friend (Berry, M. N., Friend, D. S. J. Cell Biol. 43, 506-520 (1969)) as modified by Groen (Groen, A. K. et al. Eur J. Biochem 122, 87-93 (1982)). Hepatocytes (75 mg wet weight/ml) were incubated in 1 ml Krebs-bicarbonate buffer containing 10 mM glucose, and 1 mg/ml BSA. Incubations were carried out in a 95% oxygen, 5% carbon dioxide atmosphere in closed, 50-ml Falcon tubes submerged in a rapidly shaking water bath (37° C.). A 10 mM stock solution of Compound 1.1 was prepared in methanol, and then diluted into the cell suspension or Krebs-bicarbonate buffer to yield a final concentration of 100 μM. […] The cell extracts in the acid layers were neutralized, and the intracellular prodrug metabolite content analyzed by reverse phase HPLC with use of a Beckman Ultrasphere ODS column (4.6×150 mm). The column was equilibrated with 20 mM potassium phosphate buffer, pH 6.3, and eluted with a gradient to 100% methanol. Detection was at 284 nm. Peaks on the chromatograms were identified by comparison to the retention times and spectra of standards of prodrug and parent compound.

[2] = molecular target: T1, recombinant human P450-isozyme, CYP3A4 (Homo sapiens, UniProt P08684); test: Activation of Compound 1.1 in vitro by recombinant CYP3A4; assay type: in vitro ADME; conditions: 1 mg/ml Baculosomes, 100 μM Compound 1.1, 2 mM NADPH, 37° C.
T1 construct: purchased Panvera Corp., Madison, Wis; host or cells: baculovirus-infected insect cells (microsomes, Baculosomes)
Description: Activation of Compound 1.1 was evaluated in reactions containing microsomes from baculovirus-infected insect cells co-expressing recombinant human P450-isozyme, CYP3A4, and cytochrome P450 reductase (Panvera Corp., Madison, Wis.).
Methods: Reaction mixtures (0.5 ml @ 37° C.) consisted of 1 mg/ml Baculosomes, 100 μM Compound 1.1, 2 mM NADPH and 100 mM KH2PO4 buffer. Reactions were incubated for 30 minutes in an Eppendorf Thermomixer 5436 at 37° C., and reciprocal shaking speed setting 6. 100 μl aliquots were collected at 0, 10, 20 and 30 minutes and quenched with 1.5 volumes of methanol. These extracts were spun for 10 minutes at 14,000 rpm in an Eppendorf microfuge and the supernatants were lyophilized to remove the methanol. The dried supernatant pellets were resuspended in 100 μl 20 mM potassium phosphate buffer, pH 6.3, clarified by centrifugation, and analyzed by HPLC as described in Example A.

[3] = Tissue homogenate activity (activation in homogenates from various tissues); assay type: in vitro ADME, rat; conditions: 100 μM, 1 hour
Description: Compound 1.1 is tested for activation in homogenates from various tissues to assess the specificity-of liver activation.
Methods: Rats are anesthetized under halothane and tissues including liver, kidney, brain, heart, stomach, spleen, muscle, lung, and testis are excised and frozen in liquid nitrogen. Tissues are then homogenized in 1 to 3 volumes of 50 mM Tris-HCl, 154 mM KCL, 1 mM EGTA, pH 7.4. The homogenates are centrifuged at 10,000 rpm and 4° C. for 30 minutes and the supernatant recovered. Liver cytosol is prepared by centrifuging the crude liver extract for 1 hour at 40,000 rpm and […]. Reaction mixtures consist of 50 mM KH2PO4 pH 7.4, 13 mM glucose-6-phosphate, 2 mM NADP+, 10 units of glucose-6-phosphate dehydrogenase, 100 μM Compound 1.1 and tissue homogenate or liver cytosol at a protein concentration of 8.5 mg/ml. Reactions are incubated at 37° C. Aliquots are taken after 0 and 1 hour of incubation, and extracted with 60% methanol. The methanolic extracts are centrifuged at 14,000 rpm, and filtered prior to analysis by HPLC.

[4] = Liver delivery of Etoposide following administration to rat; assay type: in vivo
Description: At appropriate time points following drug administration, animals are lightly anesthetized with halothane. The peritoneal cavity is then opened and a blood sample is obtained from the abdominal vena cava and the liver freeze-clamped and excised.
The blood samples are heparinized and plasma is prepared. Plasma samples (100 μL) are mixed with perchloric acid or methanol, vortexed, and then clarified by centrifugation. The supernatants are analyzed for Etoposide by HPLC as described in Example A.
Livers are immediately homogenized in 3 volumes of 10% perchloric acid (w/w), and the extracts clarified by centrifugation at 2500×g (5 minutes). The resulting supernatants are removed and neutralized with 0.3 volumes of 3M KOH/3M KHCO3. The neutralized liver extracts are then spun in an Eppendorf microfuge at 10,000 rpm (20 minutes, 4° C.). The supernatants are analyzed for Etoposide as described above.

[5] = test system: parent cell line (AHH-1 TK+/−) which does not express CYP3A4; test: Compound 1.1 activity in parent lymphoblastoid cells not expressing CYP3A4 (colony forming ability); conditions: non-CYP3A4 expressing cells, 24 hours exposure, 14 days culture
Description: Following drug exposure, cells are diluted to 10 cells/ml and cultured for 14 days to determine colony forming ability.

T1 sequence (P08684 whole entry): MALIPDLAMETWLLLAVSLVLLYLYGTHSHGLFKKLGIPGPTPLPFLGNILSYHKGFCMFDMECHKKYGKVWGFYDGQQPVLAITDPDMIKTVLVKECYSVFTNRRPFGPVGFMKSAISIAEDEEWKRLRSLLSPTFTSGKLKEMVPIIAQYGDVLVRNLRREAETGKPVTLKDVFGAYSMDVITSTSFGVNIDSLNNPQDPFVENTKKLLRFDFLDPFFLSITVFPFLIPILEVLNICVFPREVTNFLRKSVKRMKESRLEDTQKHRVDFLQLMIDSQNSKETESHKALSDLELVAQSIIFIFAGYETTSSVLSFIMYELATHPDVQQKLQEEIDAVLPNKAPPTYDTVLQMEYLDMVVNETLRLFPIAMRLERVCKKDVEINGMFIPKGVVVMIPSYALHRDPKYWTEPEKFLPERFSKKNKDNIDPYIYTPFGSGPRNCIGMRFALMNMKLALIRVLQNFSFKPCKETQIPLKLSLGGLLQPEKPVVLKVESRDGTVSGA

## CC(=O)N1CCN(c2ccc(OCC3COC(Cn4ccnc4)(c4ccc(Cl)cc4Cl)O3)cc2)CC1 (stereo not shown) [Ketoconazole, ketoconazole]
[1]
  inhibition of formation of parent drug by P450 isozyme inhibitor: inhibit the formation parent drug in a dose-dependent fashion
[1]; listed as ketoconozole
  inhibition of formation of parent drug by P450 isozyme inhibitor: inhibition of drug formation

## Nc1ccc(S(=O)(=O)Nc2ccnn2-c2ccccc2)cc1 [sulfaphenazole]
[1]
  inhibition of formation of parent drug by P450 isozyme inhibitor: no significant inhibition

## C=CC(=O)c1ccccc1 [Phenyl vinyl ketone]
Rat embryos in culture
  teratogenic activity: lacks teratogenic activity

## COc1cc(C2c3cc4c(cc3C(OC3OC5COC(C)OC5C(O)C3O)C3COC(=O)C23)OCO4)cc(OC)c1OP1(=O)OCCC(c2ccncc2)O1 (stereo not shown) [Compound 1.1, 4′-O-(2-oxo-4-pyridyl-1,3,2-dioxaphosphorinan-2-yl)-etoposide]
Rat hepatocytes; Krebs-bicarbonate buffer without cells, 100 μM, 37° C.
  stability in cell-free incubations: stable
Rat hepatocytes; rat hepatocytes, 100 μM Compound 1.1, 2-hour time point
  intracellular levels of Etoposide: approximately 40 nmoles/gram of cells
Rat hepatocytes; rat hepatocytes, 100 μM, 37° C.
  activation to Etoposide phosphate and free Etoposide: activated to Etoposide
[2]
  rate of Etoposide phosphate formation: 386 nmoles Etoposide phosphate/nmole CYP3A4/h
[3]; 8.5 mg/ml protein, 37° C.
  activation in crude rat liver homogenate: depletion of the prodrug and formation of parent compound
[3]; kidney, brain, heart, stomach, spleen, muscle, lung, testis
  activation in other tissue homogenates: fails to result in appreciable activation
[3]; liver cytosol without microsomal P450 enzymes, 37° C.
  activation in liver cytosol: does not result in activation
[4]; in vivo, relative to free etoposide
  liver specificity: enhanced liver specificity
[4]; rat, oral or intravenous, compared to administration of free Etoposide
  area under the curve of Etoposide in liver: higher
[4]; rat, oral or intravenous, compared to free Etoposide
  levels of Etoposide in plasma: Reduced levels
[5]
  cytotoxicity (inhibition of cell colony formation): substantial reduction cytotoxic activity

## Cc1nc2c([nH]1)c(=O)n(C)c(=O)n2Cc1ccco1 [furafylline]
[1]
  inhibition of formation of parent drug by P450 isozyme inhibitor: no significant inhibition
